Data taken from US20240358693A1, “METHODS OF TREATING PAIN” (Aisa Pharma, Inc., priority 2023, published 2024).

System: participants with SSc-RP
Assay: Scleroderma Health Assessment Questionnaire (SHAQ): disability indices and visual analog scales
Type: in vivo, human
Conditions: Day 12 vs baseline; PP Population, Part A; SSc patients; sensitivity analysis
Source text: The standard, validated, patient reported outcome measures tool for SSc patients, the Scleroderma Health Assessment Questionnaire (SHAQ), will be used to assess the participant qualify of life. Details are attached in the Appendix. The participant quality of life will be scored, and a disability index calculated for each questionnaire completed by the patient at Screening and each in-clinic visit. The absolute change in participant quality of life from baseline to the end of each dosing period will be calculated similar to frequency data as before.
The SHAQ includes a Raynaud's VAS, which will be reported at screening and each in-clinic visit. The absolute change in Raynaud-VAS, assessed by the participants response to the SHAQ question ‘In the past 7 days, how much have your Raynaud's interfered with your daily activities?’ at baseline and the end of each dosing period will be calculated similar to frequency data as before.
The SHAQ is used to calculate a Disability Index to assess the participant qualify of life. The eight categories assessed by the Disability Index are 1) dressing and grooming, 2) arising, 3) eating, 4) walking, 5) hygiene, 6) reach, 7) grip, and 8) common daily activities. For each of these categories, patients report the amount of difficulty they have in performing two or three specific activities.
There are four possible responses for the Disability Index questions: • Without any difficulty=0 • With some difficulty=1 • With much difficulty=2 • Unable to do=3. • The highest score reported by the patient for any component question of the eight categories determines the score for that category. • If a component question is left blank or the response is too ambiguous to assign a score, then the score for that category is determined by the remaining completed question(s). • If all component questions are blank or if more than one answer is given, then follow up with the respondent is required. • If the respondent's mark is between the response columns, then move it to the closest one. If it's directly between the two, move it to the higher one.
Each of the disability items on the SHAQ has a companion aids/devices variable that is used to record what type(s) of assistance, if any, the participant uses for his/her usual activities. These variables (see below) are coded as follows: • 0=No assistance is needed. • 1=A special device is used by the patient in his/her usual activities. • 2=The patient usually needs help from another person. • 3=The patient usually needs BOTH a special device AND help from another person.
The scoring variables and scoring rules permit the computation of two disability indices, the Standard Disability Index and the Alternative Disability Index.
This question results in a new set of category scores that are computed by adjusting the score for each category, if necessary, based on the patient's use of an aid or device or assistance for that category. If either devices and/or help from another person are checked for a category, the score is set to “2”, unless the score is already “3” (i.e., scores of “0” or “1” are increased to “2”). For example, if the highest score for the dressing category is “1”, and the patient says they use a device for dressing, the computed category score would be “2”. The sum of the computed categories scores is then calculated and divided by the number of categories answered. This gives a score in the 0 to 3 range.
The aid and device variables are not used to calculate the alternative disability index; it is calculated by adding the scores for each of the categories and dividing by the number of categories answered. This gives a score in the 0 to 3 range.
The standard, validated, patient reported outcome measures tool for SSc patients, the SHAQ, was collected at the time points specified in the study schedules (FIG. 2 and FIGS. 4A and 4B) to assess the participant's quality of life. The SHAQ included a Raynaud's VAS that will also be reported separately.

Q: With `COCCOC(=O)C1=C(C)NC(C)=C(C(=O)OC/C=C/c2ccccc2)C1c1cccc([N+](=O)[O-])c1` (stereo not drawn) [Any Cilnidipine] as the compound, how does the “SHAQ Alternative Disability Index, Change from Baseline, Max” value read?
A: Its value is 0.38.

Q: What about the “SHAQ Alternative Disability Index, Change from Baseline, Mean” value of the same compound?
A: Its value is −0.006.

Q: What about the “SHAQ Alternative Disability Index, Change from Baseline, Median” value of the same compound?
A: The value was 0.000.

Q: And the “SHAQ Alternative Disability Index, Change from Baseline, Min” value?
A: The value was −0.29.

Q: And the “SHAQ Alternative Disability Index, Change from Baseline, Q1” value?
A: The value was −0.125.

Q: And the “SHAQ Alternative Disability Index, Change from Baseline, Q3” value?
A: Its value is 0.000.

Q: And the “SHAQ Alternative Disability Index, Percent Change from Baseline, Max” value?
A: The value was 300.0%.

Q: What about the “SHAQ Alternative Disability Index, Percent Change from Baseline, Mean” value of the same compound?
A: Its value is 21.32%.

Q: And the “SHAQ Alternative Disability Index, Percent Change from Baseline, Median” value?
A: Its value is −10.00%.

Q: And the “SHAQ Alternative Disability Index, Percent Change from Baseline, Min” value?
A: Its value is −100.0%.

Q: And the “SHAQ Alternative Disability Index, Percent Change from Baseline, Q1” value?
A: The value was −28.57%.

Q: What about the “SHAQ Alternative Disability Index, Percent Change from Baseline, Q3” value of the same compound?
A: The value was 42.86%.

Q: And the “SHAQ Visual Analogue Scale - Finger Ulcers, Change from Baseline, Max” value?
A: The value was 0.40.

Q: And the “SHAQ Visual Analogue Scale - Finger Ulcers, Change from Baseline, Mean” value?
A: Its value is −0.540.

Q: And the “SHAQ Visual Analogue Scale - Finger Ulcers, Change from Baseline, Median” value?
A: The value was −0.100.

Q: What about the “SHAQ Visual Analogue Scale - Finger Ulcers, Change from Baseline, Min” value of the same compound?
A: The value was −3.20.

Q: And the “SHAQ Visual Analogue Scale - Finger Ulcers, Change from Baseline, Q1” value?
A: Its value is −0.700.

Q: What about the “SHAQ Visual Analogue Scale - Finger Ulcers, Change from Baseline, Q3” value of the same compound?
A: Its value is 0.000.

Q: What about the “SHAQ Visual Analogue Scale - Finger Ulcers, Percent Change from Baseline, Max” value of the same compound?
A: The value was 133.3%.

Q: What about the “SHAQ Visual Analogue Scale - Finger Ulcers, Percent Change from Baseline, Mean” value of the same compound?
A: Its value is −33.91%.

Q: And the “SHAQ Visual Analogue Scale - Finger Ulcers, Percent Change from Baseline, Median” value?
A: The value was −36.11%.

Q: And the “SHAQ Visual Analogue Scale - Finger Ulcers, Percent Change from Baseline, Min” value?
A: The value was −100.0%.

Q: What about the “SHAQ Visual Analogue Scale - Finger Ulcers, Percent Change from Baseline, Q1” value of the same compound?
A: The value was −100.00%.

Q: And the “SHAQ Visual Analogue Scale - Finger Ulcers, Percent Change from Baseline, Q3” value?
A: Its value is −12.50%.

Q: What about the “SHAQ Visual Analogue Scale - Intestinal Problems, Change from Baseline, Max” value of the same compound?
A: Its value is 2.90.

Q: What about the “SHAQ Visual Analogue Scale - Intestinal Problems, Change from Baseline, Mean” value of the same compound?
A: The value was −0.556.

Q: And the “SHAQ Visual Analogue Scale - Intestinal Problems, Change from Baseline, Median” value?
A: The value was −0.100.

Q: And the “SHAQ Visual Analogue Scale - Intestinal Problems, Change from Baseline, Min” value?
A: Its value is −4.40.

Q: What about the “SHAQ Visual Analogue Scale - Intestinal Problems, Change from Baseline, Q1” value of the same compound?
A: The value was −1.100.

Q: What about the “SHAQ Visual Analogue Scale - Intestinal Problems, Change from Baseline, Q3” value of the same compound?
A: The value was 0.200.

Q: What about the “SHAQ Visual Analogue Scale - Intestinal Problems, Percent Change from Baseline, Max” value of the same compound?
A: The value was 181.3%.

Q: What about the “SHAQ Visual Analogue Scale - Intestinal Problems, Percent Change from Baseline, Mean” value of the same compound?
A: The value was −18.65%.

Q: And the “SHAQ Visual Analogue Scale - Intestinal Problems, Percent Change from Baseline, Median” value?
A: The value was −54.13%.

Q: And the “SHAQ Visual Analogue Scale - Intestinal Problems, Percent Change from Baseline, Min” value?
A: The value was −100.0%.

Q: And the “SHAQ Visual Analogue Scale - Intestinal Problems, Percent Change from Baseline, Q1” value?
A: The value was −100.00%.

Q: What about the “SHAQ Visual Analogue Scale - Intestinal Problems, Percent Change from Baseline, Q3” value of the same compound?
A: The value was 40.00%.

Q: And the “SHAQ Visual Analogue Scale - Overall Disease Severity, Change from Baseline, Max” value?
A: The value was 1.90.

Q: What about the “SHAQ Visual Analogue Scale - Overall Disease Severity, Change from Baseline, Mean” value of the same compound?
A: The value was −0.991.

Q: What about the “SHAQ Visual Analogue Scale - Overall Disease Severity, Change from Baseline, Median” value of the same compound?
A: The value was −1.100.

Q: What about the “SHAQ Visual Analogue Scale - Overall Disease Severity, Change from Baseline, Min” value of the same compound?
A: Its value is −3.10.

Q: What about the “SHAQ Visual Analogue Scale - Overall Disease Severity, Change from Baseline, Q1” value of the same compound?
A: Its value is −1.650.

Q: And the “SHAQ Visual Analogue Scale - Overall Disease Severity, Change from Baseline, Q3” value?
A: Its value is −0.400.

Q: What about the “SHAQ Visual Analogue Scale - Overall Disease Severity, Percent Change from Baseline, Max” value of the same compound?
A: Its value is 100.0%.

Q: And the “SHAQ Visual Analogue Scale - Overall Disease Severity, Percent Change from Baseline, Mean” value?
A: The value was −36.33%.

Q: What about the “SHAQ Visual Analogue Scale - Overall Disease Severity, Percent Change from Baseline, Median” value of the same compound?
A: The value was −42.89%.

Q: And the “SHAQ Visual Analogue Scale - Overall Disease Severity, Percent Change from Baseline, Min” value?
A: Its value is −100.0%.

Q: And the “SHAQ Visual Analogue Scale - Overall Disease Severity, Percent Change from Baseline, Q1” value?
A: The value was −58.95%.

Q: What about the “SHAQ Visual Analogue Scale - Overall Disease Severity, Percent Change from Baseline, Q3” value of the same compound?
A: The value was −24.92%.

Q: What about the “SHAQ Visual Analogue Scale - Pain, Change from Baseline, Max” value of the same compound?
A: The value was 0.90.

Q: What about the “SHAQ Visual Analogue Scale - Pain, Change from Baseline, Mean” value of the same compound?
A: The value was −0.575.

Q: And the “SHAQ Visual Analogue Scale - Pain, Change from Baseline, Median” value?
A: Its value is −0.600.

Q: And the “SHAQ Visual Analogue Scale - Pain, Change from Baseline, Min” value?
A: Its value is −2.80.

Q: What about the “SHAQ Visual Analogue Scale - Pain, Change from Baseline, Q1” value of the same compound?
A: The value was −1.200.

Q: What about the “SHAQ Visual Analogue Scale - Pain, Change from Baseline, Q3” value of the same compound?
A: Its value is 0.150.

Q: What about the “SHAQ Visual Analogue Scale - Pain, Percent Change from Baseline, Max” value of the same compound?
A: Its value is 20.5%.

Q: What about the “SHAQ Visual Analogue Scale - Pain, Percent Change from Baseline, Mean” value of the same compound?
A: Its value is −22.77%.

Q: What about the “SHAQ Visual Analogue Scale - Pain, Percent Change from Baseline, Median” value of the same compound?
A: The value was −22.58%.

Q: What about the “SHAQ Visual Analogue Scale - Pain, Percent Change from Baseline, Min” value of the same compound?
A: The value was −72.2%.

Q: What about the “SHAQ Visual Analogue Scale - Pain, Percent Change from Baseline, Q1” value of the same compound?
A: Its value is −53.33%.

Q: What about the “SHAQ Visual Analogue Scale - Pain, Percent Change from Baseline, Q3” value of the same compound?
A: The value was 11.54%.

Q: What about the “SHAQ Visual Analogue Scale - Raynaud’s, Change from Baseline, Max” value of the same compound?
A: The value was 1.50.

Q: What about the “SHAQ Visual Analogue Scale - Raynaud’s, Change from Baseline, Mean” value of the same compound?
A: Its value is −0.696.

Q: And the “SHAQ Visual Analogue Scale - Raynaud’s, Change from Baseline, Median” value?
A: The value was −0.300.
